What was measured:
Pgp mRNA = assay: RT-PCR with 32P-ATP of Pgp mRNA levels in BE(2)-C neuroblastoma cell line; type: cell-based; parameters: reduction in Pgp mRNA levels, dose dependence: dose or concentration left out as unconfirmed; conditions: BE(2)-C cells
Experimental: (§1) RT-PCR was performed and [^32P]ATP was incorporated into the PCR reaction. Radioactivity was measured following gel separation of PCR product.
as §1
Tests were performed in a BE(2)—C neuroblastoma cell line. This cell line was used to test the ability of (+)pentazocine to reduce levels of Pgp mRNA and corresponding protein expression in a dose-dependent manner. Pgp levels were tested at the mRNA level by reverse-transcription polymerase chain reaction (RT-PCR) in the presence of ^32P-ATP. Incorporation of the radiolabeled nucleotide was measured following electrophoresis of the PCR product.

Pgp [1] = assay: Western blotting of Pgp protein levels in ADX cells (antibody C219); type: cell-based, Chinese hamster; conditions: 10 μM (FIG. 4)
From the text: (§2) Protein levels were monitored by Western blotting, using monoclonal antibodies specific to Pgp (e.g., C219).

Pgp [2] = assay: Western blotting of Pgp protein levels in BE(2)-C cells (antibody C219); type: cell-based; conditions: 10 μM (FIG. 3)
Experimental: FIG. 3. depicts Western Blot showing time-dependent reduction of Pgp expression in BE(2)—C cells following 10 μM (+)pentazocine treatment.
as §2

mdr-1 gene = conditions: human neuroblastoma cells; cited from earlier work

| Structure (SMILES) | decrease in Pgp mRNA (Pgp mRNA; 1 μM) | time of maximal reduction in Pgp mRNA levels post-treatment (Pgp mRNA; 10 μM (FIG. 1)) [h] | reduction in Pgp mRNA levels, dose dependence (Pgp mRNA; concentrations (FIG. 2)) | time of maximal decrease of Pgp protein levels (Pgp [1]) [h] | time of maximal decrease of Pgp protein levels (Pgp [2]) [h] | effect on expression of the mdr-1 gene (mdr-1 gene) |
| --- | --- | --- | --- | --- | --- | --- |
| CC(C)=CCN1CCC2(C)c3cc(O)ccc3CC1C2C (single isomer, unassigned; (+)) [(+)pentazocine] | two-fold decrease | 12 to 18 | dose-dependent | 12 to 18 | 12 to 18 |  |
| Br.Br.CN(CCc1ccc(Cl)c(Cl)c1)[C@H]1CCCC[C@H]1N1CCCC1 [BD 737] |  |  |  |  |  | no significant effect |

— US20040224907A1, “Compositions and methods for reversal of drug resistance” (priority 2001, published 2004)
